The text below walks through data of publication PMC10610505, “Synthesis and Biological Evaluation of Some New 3-Aryl-2-thioxo-2,3-dihydroquinazolin-4(1H)-ones and 3-Aryl-2-(benzylthio)quinazolin-4(3H)-ones as Antioxidants; COX-2, LDHA, α-Glucosidase and α-Amylase Inhibitors; and Anti-Colon Carcinoma and Apoptosis-Inducing Agents” (Pharmaceuticals, 2023).

Common to all, as to assay type: cell-based, human
The subject of one assay is HCT-116 carcinoma cells. The assay can be described thus: Cell cycle assay (PI flow cytometry), HCT-116. The conditions noted are these: 50 µg/mL, 48 h. The protocol: (§1) In the current study, the cell cycle distribution of the treated HCT-116 and LoVo carcinoma cells with compounds 3a and 3f was assessed by labeling the cell’s DNA with PI stain in order to determine if the induction of apoptosis in carcinoma cells could be related to the cell cycle arrest (Figure 8A–F). The intensity of the PI stain is proportional to the cell’s DNA content (Figure 9). […] The ability of the tested compounds (3a and 3f) to block the cell cycle progression in LoVo and HCT-116 cells confirmed their anticancer potential against these colon carcinoma cell lines and could explain the mechanism of the observed cytotoxicity.
(§2) Changes in cell cycle distribution induced by compounds 3a and 3f were analyzed using a flow cytometric analysis according to Nicoletti et al. 1991 [108] using a Propidium Iodide Flow Cytometry Kit for Cell Cycle Analysis (Abcam-UK). HCT-116 and LoVo carcinoma cells (5 × 10^4 cells/mL) were treated with DMSO as a negative control, and compounds 3a and 3f (50 µg/mL), for 48 h. After the centrifugation of the treated cells at 1800 rpm for 5 min, the pellet was washed twice with PBS. Then, the cells were fixed by mixing […] of 90% cold ethanol, and stained with propidium iodide (PI) for 1 h at 37 °C. […] The stained cells were analyzed for their DNA content using a BD FACSC flow cytometer.

In another assay the test system is caspase-3 gene. Put plainly: qRT-PCR expressional level of caspase-3 gene. To be noted: 10 µg/mL, 24 h. Here is the method: Therefore, in this study the expressional levels of caspase-3 as a major apoptosis effector were evaluated in 3a- and 3f-treated HCT-116 and LoVo cell cultures (10 µg/mL, for 24 h incubation), using qRT-PCR analysis.
(§3) Briefly, in a 25 mL flask (1 × 10^6 cells/flask), the human colon cancer cell lines (HCT-116 and LoVo) were grown for 24 h. After replacing the culture media with a medium containing 1% FBS for 24 h, the cells were treated with 10 µg/mL of each tested compound in 2 mL of fresh medium containing 1% FBS, or 0.25% DMSO, which was used as the negative control. The cells were adherent cells and they were detached using trypsin after being washed with ice-cold phosphate-buffered saline (PBS).
(§4) Primers specific for the Bax, Bcl-2 and Caspase-3 genes were designed using the primer blast (https://www.ncbi.nlm.nih.gov/tools/primer-blast/ accessed on 9 January 2023) software. The primers were used in the RT-qPCR analysis to amplify fragments of 100–200 bp in length (Table 11).
The RNeasy Mini Kit (Qiagen, Hilden, Germany) was used to extract the total RNA. The RNA purity, quality and quantity were checked using a Nanodrop 8000 spectrophotometer (Thermo Fisher Scientific, USA). The Hyperscript Kit (GeneAll, Seoul, Korea) and random hexamers (GeneAll, Seoul, Korea ) were used to reverse-transcript 1 µg of RNA from each sample into cDNA as described in the manufacturer’s protocol.
A QuantStudio 7Flex Detection System (Applied Biosystems, Thermo Fischer Scientific, Inc., USA) was used to measure the mRNA expression of Bax, Caspase-3 and Bcl-2. The reactions for the synthesis of cDNA were carried out using an iScript One-Step RT-PCR Kit with SYBR Green (cat no: 170–8892; Bio-Rad, Inc., Hercules, CA, USA). Briefly, primers (Table 10) were added to the reaction mixture at a final concentration of 10 pM. Thus, 5 µL of each cDNA sample were added to a […] PCR mixture consisting of 12.5 µL of 2 × iScript One-Step RT-PCR Kit with SYBR Green, 0.5 µL of primers for Bax, Caspase-3 and Bcl-2 as well as GAPDH (Macrogen, Seoul, Korea), and 7 µL RNase/DNase-free water (Qiagen, DE). The thermal cycling conditions for Bax, Caspase-3 and Bcl-2 were established as 5 min at 95 °C, followed by 40 cycles of 30 s at 95 °C and 30 s at 60 °C, and finally 10 s at 95 °C. The presence of a single melting temperature peak verified the specificity of each primer. The expression of a house-keeping gene, GAPDH, was used as an endogenous control for the current work.

A further assay deals with Bcl-2 gene. Put plainly: qRT-PCR expressional level of Bcl-2 gene. To be noted: 10 µg/mL, 24 h, HCT-116, vs negative control. Here is the method:
Considering these facts, enhancing apoptosis has been extensively studied as a potential drug target in cancer therapy, therefore, in this study, we investigated the effects of the most cytotoxic compounds, 3a and 3f, (at 10 µg/mL, 24 h incubation) on the expressional levels of these apoptotic regulator genes (Bax and Bcl-2) using quantitative reverse transcription–polymerase chain reactions (qRT-PCR).
as §3, §4
The RNeasy Mini Kit (Qiagen, Hilden, Germany) was used to extract the total RNA. The RNA purity, quality and quantity were checked using a Nanodrop 8000 spectrophotometer (Thermo Fisher Scientific, USA). […]
In general terms: In qPCR the cycle at which signal appears reflects the starting amount.

The test system of a further assay is LoVo carcinoma cells. Put plainly: Cell cycle assay (PI flow cytometry), LoVo. The conditions noted are these: 50 µg/mL, 48 h. The protocol: as §1, §2
(In general: Flow cytometry measures light scatter and fluorescence of single cells or particles in a stream.)

With `O=c1c2cc(Cl)ccc2[nH]c(=S)n1-c1cccc(C(F)(F)F)c1` [Compound 3a, 6-Chloro-2-thioxo-3-(3-trifluoromethyl-phenyl)-2,3-dihydro-1H-quinazolin-4-one], in the assay with HCT-116 carcinoma cells, the “Cells in G1 phase (%DIP G1)” value was found to be 53.51%. In addition, the “Expression level of caspase-3 gene (upregulated)” value with caspase-3 gene (HCT-116, vs negative control) amounted to 3.731 fold; in the assay on caspase-3 gene (LoVo, vs negative control), 2.6026 fold. Moreover, the “Expressional level of anti-apoptotic gene Bcl-2” value with Bcl-2 gene is recorded as 0.635 fold. Besides, the “Cells in G2/M phase (%DIP G2/M)” value in the assay on LoVo carcinoma cells was 22.64%.
On to `O=c1c2cc(Cl)ccc2[nH]c(=S)n1-c1ccc([N+](=O)[O-])cc1` [Compound 3f, 6-Chloro-3-(4-nitro-phenyl)-2-thioxo-2,3-dihydro-1H-quinazolin-4-one], for which the “Cells in G1 phase (%DIP G1)” value in the assay on HCT-116 carcinoma cells turned out to be 57.81%. Besides, the “Expression level of caspase-3 gene (upregulated)” value in the assay on caspase-3 gene (HCT-116, vs negative control) is recorded as 6.071 fold; in the assay on caspase-3 gene (LoVo, vs negative control) it was 6.9340 fold. The “Expressional level of anti-apoptotic gene Bcl-2” value in the assay on Bcl-2 gene is 0.345 fold. Moreover, in the assay with LoVo carcinoma cells, the “Cells in G2/M phase (%DIP G2/M)” value came to 29.16%.
